Drawing on PubChem BioAssay AID1963429 (Molecular Pharmacology Branch, DTP, NCI, 2024), this text covers viability, T/C and IC50 for 2 compounds.

Where “and” joins values, the source holds several entries; their conditions need not be identical. Identical values can stand only once.

For the test, the system named is 126254-015-R-J1-PDC complex spheroid growth, % test/control. In words: Anticancer human tumor 126254-015-R-J1-PDC patient-derived soft tissue sarcoma cell line growth inhibition [Asc]. The following applies: for viability, T/C: stronger effect = lower value. In outline: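 Spheroid model: tumor line + HUVEC + hMSC. Single agents and combinations; top conc. at/near clinical Cmax (10 microM if undetermined), half-log dilutions. DMSO stocks at 800-fold test concentration.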
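Note: spheroids exposed to compound for seven days.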
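Throughout, for viability, T/C: 100% = DMSO vehicle control wells.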

What is called viability, T/C is the ratio of treated to control. In general, IC50 refers to the point on the concentration scale where inhibition reaches its midpoint. Take `C=CC(=O)N1CCN(c2nc(=O)n(-c3c(C)ccnc3C(C)C)c3nc(-c4c(O)cccc4F)c(F)cc23)C(C)C1` (configuration not stated): the viability, T/C runs as follows: (compound 0.0316 µM) 93.4% and 99.9% and 105%; (compound 0.1 µM) 106% and 97.6% and 110%; (compound 0.316 µM) 107% and 115% and 109%; (compound 1 µM) 102% and 111% and 112%; (compound 3.16 µM) 120% and 116% and 110%; (compound 10 µM) 88.8% and 91% and 102%. Also, where the note is “curve of compound”, the IC50 is greater than 10 µM.

Consider `CCN1C(C(=O)NC23CCC(C(=O)O)(CC2)CC3)C(c2cccc(Cl)c2F)C2(C(=O)Nc3cc(Cl)ccc32)C12CCCCC2` (configuration not stated) + CNC(C)C(=O)NC1CN(S(=O)(=O)c2cccc(S(=O)(=O)N3CCC4CCC(C(=O)NC(c5ccccc5)c5ccccc5)N4C(=O)C(NC(=O)C(C)NC)C3)c2)CCC2CCC(C(=O)NC(c3ccccc3)c3ccccc3)N2C1=O, for which the IC50 (curve of first compound, second compound 0.01 µM) is greater than 3 µM; the IC50 (curve of first compound, second compound 0.0316 µM) is greater than 3 µM; the IC50 (curve of first compound, second compound 0.1 µM) was greater than 3 µM; the half-inhibitory concentration (IC50) (curve of first compound, second compound 0.316 µM) is greater than 3 µM; the IC50 (curve of first compound, second compound 1 µM) is greater than 3 µM. The viability, T/C runs as follows: (second compound 0.01 µM, first compound 0.00949 µM) 88.3%; (second compound 0.01 µM, first compound 0.03 µM) 86.9%; (second compound 0.01 µM, first compound 0.0949 µM) 87.7%; (second compound 0.01 µM, first compound 0.3 µM) 77.1%; (second compound 0.01 µM, first compound 0.949 µM) 79.8%; (second compound 0.01 µM, first compound 3 µM) 81.2%. Besides, the viability, T/C by setting is: (second compound 0.0316 µM, first compound 0.00949 µM) 74.4%; (second compound 0.0316 µM, first compound 0.03 µM) 69.4%; (second compound 0.0316 µM, first compound 0.0949 µM) 70.2%; (second compound 0.0316 µM, first compound 0.3 µM) 74.5%; (second compound 0.0316 µM, first compound 0.949 µM) 66.4%; (second compound 0.0316 µM, first compound 3 µM) 72.3%. For the same compound, the viability, T/C (second compound 0.1 µM, first compound 0.00949 µM) was 66%; the viability, T/C (second compound 0.1 µM, first compound 0.03 µM) is 70%; the viability, T/C (second compound 0.1 µM, first compound 0.0949 µM) was 67.4%; the viability, T/C (second compound 0.1 µM, first compound 0.3 µM) is 64.6%; the viability, T/C (second compound 0.1 µM, first compound 0.949 µM) was 67.7%; the viability, T/C (second compound 0.1 µM, first compound 3 µM) was 66.5%. The viability, T/C is 54.8% (second compound 0.316 µM, first compound 0.00949 µM); 68% (second compound 0.316 µM, first compound 0.03 µM); 60.7% (second compound 0.316 µM, first compound 0.0949 µM); 57.2% (second compound 0.316 µM, first compound 0.3 µM); 61% (second compound 0.316 µM, first compound 0.949 µM); 73% (second compound 0.316 µM, first compound 3 µM). In addition, the viability, T/C (second compound 1 µM, first compound 0.00949 µM) was 52.8%; the viability, T/C (second compound 1 µM, first compound 0.03 µM) is 60.8%; the viability, T/C (second compound 1 µM, first compound 0.0949 µM) is 61.1%; the viability, T/C (second compound 1 µM, first compound 0.3 µM) was 64%; the viability, T/C (second compound 1 µM, first compound 0.949 µM) is 61.5%; the viability, T/C (second compound 1 µM, first compound 3 µM) was 63.2%.
